# From patent US20230134003A1, “METHOD AND APPARATUS FOR CLINICAL TESTING” (Lightcast Discovery Ltd, priority 2019, published 2023)
# System: sample strain of E. coli bacteria
# Assay: Panel merge and MIC determination in microdroplets on oEWOD chip
# Type: cell-based
# Conditions: gentamicin in tryptic soy broth (TSB) droplets merged with droplets of 1-3 bacteria; growth pattern observed within three hours of reducing the concentration
# Method: Droplets were paired together so that the post-merge droplets were all roughly of uniform size. Every third droplet was labelled as a control and remained unpaired. The smaller droplets in this example contained the antibiotic gentamicin at a concentration of 500 ng/mL in tryptic soy broth (TSB), whilst each of the larger droplets contained 1-3 bacteria in TSB. […] Within three hours of reducing the concentration, a robust growth behaviour pattern was observed, allowing for a determination of the MIC. In this particular case, the MIC was determined to lie at approximately 300 pg/mL.
substance,measurement,value
gentamicin,MIC,approximately 300 pg/mL
